Experimental data: patent US20050266512A1, “Detection of proteases and screening for protease inhibitors” (priority 2000, published 2005)

System: horse erythrocytes
Assay: Hemolytic plate assay (erythrocyte lysis, decrease in absorbance)
Format: cell-based
Conditions: FIG. 1
Method: The HIV-1 proaerolysin variant generated in EXAMPLE 3 was incubated with varying concentrations of an HIV protease-containing sample in a microtiter plate (HIV-1 protease obtained from BACHEM, Torrance, Calif.). The HIV-1 proaerolysin variant (1.5×10^−6 M) was diluted 1:16 in PBS to a final volume of 100 μl and added to the first column of wells of a 96 well plate. Various concentrations of HIV-protease containing samples, ranging from 10 to 500 ng of HIV-1 protease in a final volume of 100 μl, were added to each of the 8 wells of the first column of the microtiter plate, and the plate incubated for four hours.
After incubation, the samples were serially diluted 1:2 by adding 100 μl of PBS to the first column of wells, mixing and transferring 100 μl sequentially to each of the wells in every row. Then, 100 μl of washed horse erythrocytes were added to all wells so that the final erythrocyte concentration was 0.4%. […]

| Substance | absorbance (erythrocyte lysis) (HIV variant of proaerolysin activated with HIV protease, absorbance at 600 nm, listed as HIV variant of proaerolysin) | absorbance (erythrocyte lysis) (HIV variant of proaerolysin activated with HIV protease, absorbance at 600 nm, listed as proaerolysin variant) | absorbance (erythrocyte lysis) (native proaerolysin activated with trypsin) |
| --- | --- | --- | --- |
| HIV-1 proaerolysin variant: proaerolysin variant in which the normal activation sequence KVRRAR was replaced with the HIV-1 protease sensitive sequence QNYPIV | decrease in absorbance | lysis of the erythrocytes | – |
| native proaerolysin: precursor form of the aerolysin toxin, a 52 kDa protein produced by bacteria in the genus Aeromonas | – | – | decrease in absorbance |
